Laboratory results taken from patent US7511145B2 (Genelabs Technologies, Inc., priority 2003, dated 2009).

Biological target: T1, HCV-NS5b (Hepatitis C virus genotype 1b, UniProt Q9WMX2)
T1 construct: (His)6 (C); made in house; host or cells: XL-1 cells (E. coli), IPTG-inducible plasmid, nickel-NTA purification
Assay: HCV-NS5b enzyme assay (incorporation of radiolabeled UTP)
Type: biochemical
Settings: for inhibition at 33 µM: enzyme inhibition at compound concentration of 33 uM; for inhibition at 100 µM: read-out: % inh@100, enzyme inhibition at compound concentration of 100 uM
In short: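 Percent inhibition, background-corrected against uninhibited control, was measured at 100 and 33 uM compound. Incorporation of [3H]-UTP (10 μM each NTP) into biotinylated HCV-template RNA, 37° C for 2 h, pH 7.5, scintillation proximity. Enzyme: C-terminally truncated (21 aa), His6-tagged NS5b from XL-1.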

Compound | inhibition at 33 µM [%] | inhibition at 100 µM [%]
COc1ccc(-c2cccc(C)c2)c(-c2ccc3cc(-c4nc5cc(C(=O)O)ccc5n4C4CCCCC4)ccc3n2)c1 [Compound 367, 1-cyclohexyl-2-[2-(4-methoxy-3′-methyl-biphen-2-yl)-quinolin-6-yl]-1H-benzoimidazole-5-carboxylic acid] | 103 | 101
COc1ccc(-c2cccc(C(=O)O)c2)c(-c2ccc3cc(-c4nc5cc(C(=O)O)ccc5n4C4CCCCC4)ccc3n2)c1 [Compound 437, 2-[2-(3′-carboxy-4-methoxy-biphen-2-yl)-quinolin-6-yl]-1-cyclohexyl-1H-benzoimidazole-5-carboxylic acid] | 100 | 101
CCc1ccc(-c2ccc(OC)cc2-c2ccc3cc(-c4nc5cc(C(=O)O)ccc5n4C4CCCCC4)ccc3n2)cc1 [Compound 557, 1-Cyclohexyl-2-[2-(4′-ethyl-4-methoxy-biphen-2-yl)-quinolin-6-yl]-1H-benzoimidazole-5-carboxylic acid] | 103 | 101
COc1ccc(-c2ccccc2OC)c(-c2ccc3cc(-c4nc5cc(C(=O)O)ccc5n4C4CCCCC4)ccc3n2)c1 [Compound 552, 1-Cyclohexyl-2-[2-(4,2′-dimethoxy-biphen-2-yl)-quinolin-6-yl]-1H-benzoimidazole-5-carboxylic acid] | 101 | 101
Cc1cc(-c2ccccc2)nc2ccc(-c3nc4cc(C(=O)O)ccc4n3C3CCCCC3)cc12 [Compound 498, 1-Cyclohexyl-2-(4-methyl-2-phenyl-quinolin-6-yl)-1H-benzoimidazole-5-carboxylic acid] | 98.5 | 100
N=C(N)NCCC[C@H](NC(=O)c1ccc2c(c1)nc(-c1ccc3nc(-c4ccccc4)cnc3c1)n2C1CCCCC1)C(=O)O [Compound 523, 2-{[1-Cyclohexyl-2-(2-phenyl-quinoxalin-6-yl)-1H-benzoimidazole-5-carbonyl]-amino}-5-guanidino-pentanoic acid] | 87.1 | 95
CN(C)c1ccc(-c2nc3ccc(-c4nc5cc(C(=O)O)ccc5n4C4CCCCC4)cc3nc2-c2ccc(N(C)C)cc2)cc1 [Compound 458, 2-[2,3-Bis-(4-dimethylaminotphenyl)quinoxalin-6-yl]-1-cyclohexyl-1H-benzimidazole-5-carboxylic acid] | 100 | 104
COCCOc1ccc(-c2ccccc2)c(-c2ccc3cc(-c4nc5cc(C(=O)O)ccc5n4C4CCCCC4)ccc3n2)c1 [Compound 461, 1-Cyclohexyl-2-{2-[4-(2-methoxy-ethoxy)-biphen-2-yl]-quinolin-6-yl}-1H-benzoimidazole-5-carboxylic acid] | 97.9 | 96.7
Nc1ccc(-c2ccc3cc(-c4nc5cc(C(=O)O)ccc5n4C4CCCCC4)ccc3n2)cc1 [Compound 358, 2-[2-(4-amino-phenyl)-quinolin-6-yl]-1-cyclohexyl-1H-benzoimidazole-5-carboxylic acid] | 85.1 | 95.3
O=C(O)c1ccc2c(c1)nc(-c1ccc3nc(-c4cnn(-c5ccccc5)c4)ccc3c1)n2C1CCCCC1 [Compound 449, 1-cyclohexyl-2-[2-(1-phenyl-1H-pyrazol-4-yl)-quinolin-6-yl]-1H-benzoimidazole-5-carboxylic acid] | 99.8 | 101
O=C(O)[C@@H]1Cc2ccccc2CN1C(=O)c1ccc2c(c1)nc(-c1ccc3nc(-c4ccccc4)cnc3c1)n2C1CCCCC1 [Compound 520, 2-[1-Cyclohexyl-2-(2-phenyl-quinoxalin-6-yl)-1H-benzoimidazole-5-carbonyl]-1,2,3,4-tetrahydro-isoquinoline-3-carboxylic acid] | 94.8 | 98.9
O=C(N[C@@H](Cc1c[nH]c2ccc(O)cc12)C(=O)O)c1ccc2c(c1)nc(-c1ccc3cc(-c4ccccc4)cnc3c1)n2C1CCCCC1 [Compound 516, 2-{[1-cyclohexyl-2-(3-phenyl-quinolin-7-yl)-1H-benzoimidazole-5-carbonyl]-amino}-3-(5-hydroxy-1H-indol-3-yl)-propionic acid] | 99.3 | 100
COc1cccc(-c2nc3ccc(-c4nc5cc(C(=O)O)ccc5n4C4CCCCC4)cc3nc2-c2cccc(OC)c2)c1 [Compound 425, 2-[2,3-Bis-(3-methoxyphenyl)quinoxalin-6-yl]-1-cyclohexyl-1H-benzimidazole-5-carboxylic acid] | 96.2 | 98.2
O=C(O)c1cnc2c(c1)nc(-c1ccc3nc(-c4cc(C(=O)N5CCCC5)ccc4-c4ccc(Cl)cc4)ccc3c1)n2C1CCCCC1 [Compound 539, 2-{2-[4′-chloro-4-(pyrrolidine-1-carbonyl)-biphen-2-yl]-quinolin-6-yl}-3-cyclohexyl-3H-imidazo[4,5-b]pyridine-6-carboxylic acid] | 104 | 102
O=C(O)c1ccc2c(c1)nc(-c1ccc3nc(-c4ccc(Oc5ccccc5)cc4)ccc3c1)n2C1CCCCC1 [Compound 428, 1-cyclohexyl-2-[2-(4-phenoxy-phenyl)-quinolin-6-yl]-1H-benzoimidazole-5-carboxylic acid] | 98.8 | 99.6
O=C(c1ccc2c(c1)nc(-c1cc3ccc(-c4ccccc4-c4ccc(Cl)cc4)nc3cc1F)n2C1CCCCC1)N1CCC(O)CC1 [Compound 514, {2-[2-(4′-Chloro-biphen-2-yl]-7-fluoro-quinolin-6-yl]-1-cyclohexyl-1H-benzoimidazol-5-yl}-(4-hydroxy-piperidin-1-yl)-methanone] | 89.6 | 91.9
CN(C)CCNC(=O)c1ccc(-c2ccccc2)c(-c2ccc3cc(-c4nc5cc(C(=O)O)ccc5n4C4CCCCC4)ccc3n2)c1 [Compound 504, 1-Cyclohexyl-2-{2-[4-(2-dimethylamino-ethylcarbamoyl)-biphen-2-yl]-quinolin-6-yl}-1H-benzoimidazole-5-carboxylic acid] | 98.3 | 100
O=C(O)c1ccc2c(c1)nc(-c1ccc3nc(-c4ccccc4)c(-c4ccccc4)nc3c1)n2C1CCCCC1 [Compound 406, 1-Cyclohexyl-2-(2,3-diphenylquinoxalin-6-yl)-1H-benzimidazole-5-carboxylic acid] | 97.3 | 98.1
O=C(O)c1ccc2c(c1)nc(-c1ccc3nc(-c4cc(O)cc(O)c4)ccc3c1)n2C1CCCCC1 [Compound 381, 1-cyclohexyl-2-[2-(3,5-dihydroxy-phenyl)-quinolin-6-yl]-1H-benzoimidazole-5-carboxylic acid] | 94.3 | 98
O=C(O)COc1cccc(-c2ccc3cc(-c4nc5cc(C(=O)O)ccc5n4C4CCCCC4)ccc3n2)c1 [Compound 359, 2-[2-(3-Carboxymethoxy-phenyl)-quinolin-6-yl]-1-cyclohexyl-1H-benzoimidazole-5-carboxylic acid] | 97.3 | 99.6
COc1ccc(-c2ccc(Cl)cc2)c(-c2ccc3cc(-c4nc5cc(C(=O)O)ccc5n4CCC(C)C)ccc3n2)c1 [Compound 532, 2-[2-(4′-chloro-4-methoxy-biphen-2-yl)-quinolin-6-yl]-1-(3-methyl-butyl)-1H-benzoimidazole-5-carboxylic acid] | 99.6 | 98.8
COc1cc(O)c(-c2ccc3cc(-c4nc5cc(C(=O)O)ccc5n4C4CCCCC4)ccc3n2)c(OC)c1 [Compound 452, 1-cyclohexyl-2-[2-(2-hydroxy-4,6-dimethoxy-phenyl)-quinolin-6-yl]-1H-benzoimidazole-5-carboxylic acid] | 102 | 102
O=C(O)c1cnc2c(c1)nc(-c1ccc3nc(-c4ccccc4Br)ccc3c1)n2C1CCCCC1 [Compound 477, 2-[2-(2-bromo-phenyl)-quinolin-6-yl]-3-cyclohexyl-3H-imidazo[4,5-b]pyridine-6-carboxylic acid] | 92.4 | 95.9
COc1ccc(-c2ccc(Cl)cc2)c(-c2ccc3cc(-c4nc5cc(C(=O)O)ccc5n4C4CCCCC4)ccc3n2)c1 [Compound 356, 2-[2-(4′-Chloro-4-methoxy-biphen-2-yl)-quinolin-6-yl]-1-cyclohexyl-1H-benzoimidazole-5-carboxylic acid] | 101 | 100
O=C(O)c1ccc2c(c1)nc(-c1ccc3nc(-c4ccc[nH]4)ccc3c1)n2C1CCCCC1 [Compound 450, 1-Cyclohexyl-2-[2-(1H-pyrrol-2-yl)-quinolin-6-yl]-1H-benzoimidazole-5-carboxylic acid] | 96.5 | 99.7
COCCOc1ccc(-c2ccc(Cl)cc2)c(-c2ccc3cc(-c4nc5cc(C(=O)O)ccc5n4C4CCCCC4)ccc3n2)c1 [Compound 475, 2-{2-[4′-Chloro-4-(2-methoxy-ethoxy)-biphen-2-yl]-quinolin-6-yl}-1-cyclohexyl-1H-benzoimidazole-5-carboxylic acid] | 97.5 | 95.9
CC(C)C[C@H](NC(=O)c1ccc2c(c1)nc(-c1ccc3nc(-c4ccccc4)cnc3c1)n2C1CCCCC1)C(=O)O [Compound 513, 2-{[1-Cyclohexyl-2-(2-phenyl-quinoxalin-6-yl)-1H-benzoimidazole-5-carbonyl]-amino}-4-methyl-pentanoic acid] | 93.2 | 95.9
COc1ccc(-c2ccc(C(=O)N3CCCC3)cc2-c2ccc3cc(-c4nc5cc(C(=O)O)ccc5n4C4CCCCC4)ccc3n2)cc1OC [Compound 419, 1-Cyclohexyl-2-{2-[3′,4′-dimethoxy-4-(pyrrolidine-1-carbonyl)biphen-2-yl]quinolin-6-yl}-1H-benzimidazole-5-carboxylic acid] | 101 | 101
